The values below come from patent US12384800B2, “Antitumoral compounds” (priority 2017, dated 2025).

A value given as a limit tells only on which side of the number the result lay.

Data set [1] is described as follows: MTD (Maximum Tolerated Dose) determination, single iv administration. The following applies: mice, iv/SD (single dose), monitored up to 14 days; for MTD at 14 days: female, mouse, in vivo. The data set is classed as in vivo. The text has this:
(§1) Female CD-1 or Athymic Nude-Fox1 nu/nu mice (Envigo) were utilized for all experiments. […] Animals were acclimated for five days prior to being individually tattoo-identified. Animal protocols were reviewed and approved according to the regional Institutional Animal Care and Use Committees.
(§2) Mice were randomly allocated into experimental groups and intravenously administered, once for the MTD (Maximum Tolerated Dose) determination or one administration a week during three consecutive weeks, for the MTMD (Maximum Tolerated Multiple Dose) determination study. The animals were administered with white formulation or with compound dissolved in the experimental formulation at different concentrations. The volume administered was always […]. Once administered, animals were monitored for clinical signs of systemic toxicity, changes in body weight and mortality up to 14 days after the administration.

The nature of data set [2]: MTMD (Maximum Tolerated Multiple Dose) determination, iv weekly x 3. Format: in vivo. The following applies: mice; iv/Q7d × 3.
Description: as §1, §2

For a further data set, the system named is HT1080 tumors. Kind of data set: Human fibrosarcoma xenograft, total diameter (tumor + leg). The following applies: iv Days 0, 7 and 14, 4-R 0.30 mg/kg. In general terms: A xenograft is tissue or cells of one species grown in another, often human tumour cells in immunodeficient mice.
Data set [3] concerns MDA-MB-231 cells (breast adenocarcinoma). Kind of data set: cells. The following applies: Homo sapiens, MDA-MB-231, 72 h; for CC50: read-out: LC50; for IC (total growth inhibition): read-out: TGI. The procedure, abridged: (§3)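 Cells seeded at 5000/well, attached 18 h, then exposed 72 h to ten 2/5 serial dilutions (10 to 0.003 μg/mL; 1% DMSO final) in triplicate; time-zero plate fixed. SRB staining after glutaraldehyde fixation; growth effects by NCI algorithm, four-parameter logistic fit.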

Data set [4] deals with PSN1 cells (pancreas adenocarcinoma). Kind of data set: cells. The following applies: Homo sapiens, PSN1, 72 h; for IC (total growth inhibition): read-out: TGI. In short, it runs like this:
as §3

In data set [5] the test system is A549 cells (lung carcinoma, NSCLC). Put plainly: cells. The following applies: Homo sapiens, A549, 72 h; for CC50: read-out: LC50; for IC (total growth inhibition): read-out: TGI. In short, it runs like this: as §3
In data set [6] the test system is HT29 cells (colorectal adenocarcinoma). Put plainly: cells. The following applies: Homo sapiens, HT-29, 72 h; for CC50: read-out: LC50; for IC (total growth inhibition): read-out: TGI. The procedure, abridged:
as §3

For a further data set, the system named is B16 melanoma. The following applies: U.S. Pat. No. 5,149,804; cited from earlier work.
The next data set has as its system Lewis lung carcinoma. The following applies: U.S. Pat. No. 5,149,804; cited from earlier work.
For a further data set, the system named is P388 lymphoma. The following applies: U.S. Pat. No. 5,149,804; cited from earlier work.

Description for HT1080 tumors: Female athymic nu/nu mice (Harlan Laboratories Models, S.L. Barcelona, Spain or Envigo, Spain) were utilized for all experiments. Animal were housed in individually ventilated cages Sealsafe® Plus, Techniplast S.P.A.), up to ten per cage on a 12-hour light-dark cycle at 21-23° C. and 40-60% humidity. […] Animals were acclimated for at least 5 days prior to tumor implantation with a tumor cell suspension.
HT1080 cells were maintained in vitro at 37° C. with 5% CO2 in Minimum Essential Medium Eagle (MEME) (Sigma-Aldrich, Co). Each animal was orthotopically implanted into gastroecnemius muscle by an intramuscular injection using a 26G needle and a 1 cc syringe at 4-6 weeks of age, with 10×10^6 HT1080 cells, suspended in serum free medium, without antibiotics.
Treatment tolerability was assessed by monitoring body weight evolution, clinical signs of systemic toxicity, as well as evidences of local damage in the injection site.
In xenograft studies with HT1080 cell line: • Total diameter (tumor+leg) measurements were determined by using digital caliper (Fowler Sylvac, S235PAT).
Treatments producing >20% lethality and/or 20% net body weight loss were considered toxic.

One may read the MTD as the highest dose tested that stayed within the study's limit of toxicity. A higher MTD goes with better tolerability. Turning to `COc1c(C)cc2c(c1O)[C@@H]1[C@@H]3[C@@H]4SC[C@]5(N[C@@H](CO)Cc6c5[nH]c5ccccc65)C(=O)OC[C@@H](c5c6c(c(C)c(OC(C)=O)c54)OCO6)N3[C@@H](O)[C@H](C2)N1C` [Compound 4-R], in data set [1], the MTD came to 0.25 mg/kg. In addition, the MTMD in data set [2] worked out at 0.30 mg/kg. The “Total diameter (tumor + leg)” value was 8.1 mm with HT1080 tumors (Day 0, PM01183 […]); 8.6 mm in the data set with HT1080 tumors (Day 2, PM01183 […]); 8.7 mm with HT1080 tumors (Day 7, PM01183 […]); 9.0 mm in the data set on HT1080 tumors (Day 9, PM01183 […]); 9.3 mm with HT1080 tumors (Day 14, PM01183 […]); 10.3 mm in the data set with HT1080 tumors (Day 18, PM01183 […]). For the same compound, the “Total diameter (tumor + leg)” value stood at 11.5 mm with HT1080 tumors (Day 21, PM01183 […]); 13.3 mm in the data set on HT1080 tumors (Day 23, PM01183 […]); 15.8 mm in the data set on HT1080 tumors (Day 25, PM01183 […]); 18.0 mm in the data set with HT1080 tumors (Day 28).
With `COc1ccc2[nH]c3c(c2c1)C[C@H](CO)N[C@]31CS[C@@H]2c3c(OC(C)=O)c(C)c4c(c3[C@H](COC1=O)N1[C@@H]2[C@H]2c3c(cc(C)c(OC)c3O)C[C@@H]([C@@H]1O)N2C)OCO4` [Compound 19-R], the MTD at 14 days in data set [1] was found to be 0.15 mg/kg. This compound gave an MTMD in data set [2] of 0.15 mg/kg. Moreover, the CC50 in data set [3], in [5] and in data set [6] was greater than 123 nM throughout. The IC (total growth inhibition) in [3] came out at 0.00135 µM; in [4], 0.00135 µM; in data set [5], 0.00356 µM; in [6], 0.00172 µM.
What is called GI50 is the concentration at which growth is held to half of that of the control. As for `COc1ccc2[nH]c3c(c2c1)C[C@@H](CO)N[C@]31CS[C@@H]2c3c(OC(C)=O)c(C)c4c(c3[C@H](COC1=O)N1[C@@H]2[C@H]2c3c(cc(C)c(OC)c3O)C[C@@H]([C@@H]1O)N2C)OCO4` [Compound 19-S], the MTD at 14 days in data set [1] is 0.5 mg/kg. Further, in [2], the MTMD came out at 0.75 mg/kg. In addition, the GI50 was found to be 1.96 nM in data set [3], 2.95 nM in [4], 3.07 nM in data set [5] and 1.35 nM in [6]. The CC50 in data set [3] is 11 nM; in [4] (read-out: LC50), greater than 123 nM; in data set [5] it was greater than 123 nM; in data set [6] it was greater than 123 nM. Moreover, the IC (total growth inhibition) in data set [3] was 0.00331 µM; in data set [4] it was 0.00319 µM; in data set [5], 0.00331 µM; in data set [6] it was 0.0016 µM.
Take `COc1c(C)cc2c(c1O)[C@@H]1[C@@H]3[C@@H]4SC[C@]5(NCCc6c5[nH]c5ccccc65)C(=O)OC[C@@H](c5c6c(c(C)c(OC(C)=O)c54)OCO6)N3[C@@H](O)[C@H](C2)N1C` [ET-736, Ecteinascidin 736]: the “protection of mice in vivo” value in the data set with B16 melanoma, in the data set on Lewis lung carcinoma and with P388 lymphoma was “protects mice in vivo at very low concentrations” in each case. In data set [2], this compound returned an MTMD of 0.5 mg/kg.
